Measured values: patent US20240217966A1, “PHARMACEUTICAL COMPOSITION CONTAINING GLP-1 RECEPTOR AGONIST HAVING FUSED RING” (Shionogi & Co., Ltd., priority 2021, published 2024)
Read-outs that look alike come from different tables or passages of the source.

How the values were obtained:
[1] = Metabolism stability test (Test Example 2-2); type: in vitro ADME; details: pooled human liver microsomes 0.5 mg protein/mL, 37° C., 30 minutes, 1 mmol/L NADPH (oxidative reaction), compound concentration 0.5 μmol/L
Procedure: Test Example 2-2: Metabolism Stability Test
Using commercially available pooled human liver microsomes, a compound of the present invention is reacted for a constant time, and a remaining rate is calculated by comparing a reacted sample and an unreacted sample, thereby, a degree of metabolism in liver is assessed.
A reaction is performed (oxidative reaction) at 37° C. for 0 minute or 30 minutes in the presence of 1 mmol/L NADPH in 0.2 mL of a buffer (50 mmol/L Tris-HCl pH 7.4, 150 mmol/L potassium chloride, 10 mmol/L magnesium chloride) containing 0.5 mg protein/mL of human liver microsomes. After the reaction, 70 μL of the reaction solution is added to 140 μL of a methanol/acetonitrile=1/1 (v/v), mixed and centrifuged at 3000 rpm for 15 minutes. The compound of the present invention in the centrifuged supernatant is quantified by LC/MS/MS or solid-phase extraction (SPE)/MS. The ratio of the amount of the compound after the reaction, with respect to the amount of the compound at 0 minutes of the reaction defined as 100%, is shown as the residual rate. Hydrolysis reaction is performed in the absence of NADPH, and glucuronidation reaction is performed in the presence of 5 mmol/L UDP-glucuronic acid instead of NADPH. Then, the same operation is carried out. The dilution concentration or the dilution solvent are changed as necessary.
The compounds of the present invention were tested essentially as described above.

Human GLP-1 receptor = target: T1, Human GLP-1 receptor (Homo sapiens, UniProt P43220); test: Measurement of GLP-1 receptor agonist activity (cAMP assay); type: cell-based
T1 construct: expressed in transfected cells
T1 sequence (P43220 24-463): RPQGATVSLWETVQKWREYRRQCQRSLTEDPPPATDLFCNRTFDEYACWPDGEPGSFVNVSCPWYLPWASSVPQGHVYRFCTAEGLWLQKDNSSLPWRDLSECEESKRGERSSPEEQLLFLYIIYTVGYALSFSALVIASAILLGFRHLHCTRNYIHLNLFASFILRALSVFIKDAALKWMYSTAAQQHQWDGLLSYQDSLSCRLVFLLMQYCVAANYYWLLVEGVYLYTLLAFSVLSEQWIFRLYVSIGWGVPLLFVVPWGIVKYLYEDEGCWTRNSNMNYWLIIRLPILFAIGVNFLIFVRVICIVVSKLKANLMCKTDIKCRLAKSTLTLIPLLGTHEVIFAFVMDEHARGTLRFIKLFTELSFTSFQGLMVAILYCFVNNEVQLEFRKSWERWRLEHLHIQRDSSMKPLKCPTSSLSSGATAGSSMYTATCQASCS
Procedure, shortened: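 Agonism measured as cAMP accumulation by time-resolved FRET immunoassay in CHO-K1 cells stably expressing human GLP-1 receptor. Cells treated for 1 h at 37 °C with compound and forskolin (400 μM stock), in buffer containing the PDE inhibitors IBMX (0.1 mM) and RO20-1724 (0.2 mM).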

[2] = CHO-K1, hGLP-1R/CHO-K1 cells, cAMP, 100% = human GLP-1 (7-36) at 2 nM, 0% = DMSO only, read-out: Emax(%)
[3] = hGLP-1R/CHO-K1 cells, cAMP increase, 37° C. 1 hour
[4] = CHO-K1, maximum effect, cAMP increase in GLP-1 R/CHO-K1 cells, 2 nM human GLP-1 (7-36) = 100%, DMSO only = 0%, read-out: Emax
[5] = cAMP increase in GLP-1 R/CHO-K1 cells, 2 nM human GLP-1 (7-36) = 100%, DMSO only = 0%

## O=C(O)c1cc(F)c2nc(CN3CCc4cc(C(F)(F)F)c(OCc5ccc(Cl)cc5F)cc4C3)n(C[C@@H]3CCO3)c2c1 [Compound I-033]
[1]
  residual rate of the compound: 87.1%
Human GLP-1 receptor; [2]
  Emax: 109%
Human GLP-1 receptor; [3]
  EC50: 1.49 nM

## C[C@H]1c2cc(OCc3ccc(Cl)cc3F)c(C(F)(F)F)cc2CCN1Cc1nc2ccc(C(=O)O)cc2n1C[C@@H]1CCO1 [Compound I-035]
[1]
  residual rate of the compound: 87.1%
Human GLP-1 receptor; [2]
  Emax: 129%
Human GLP-1 receptor; [3]
  EC50: 0.298 nM

## O=C(O)c1ccc2nc(Cc3ccc4nc(C(F)(F)F)c(OCc5ccc(Cl)cc5F)nc4c3F)n(C[C@@H]3CCO3)c2c1 [Compound I-109]
[1]
  residual rate of the compound: 99.6%
Human GLP-1 receptor; [2]
  Emax: 114%
Human GLP-1 receptor; [3]
  EC50: 0.472 nM

## C[C@H]1c2cc(OCc3ccc(Cl)cc3F)c(C(F)(F)F)cc2CCN1Cc1nc2ccc(C(=O)O)c(F)c2n1C[C@@H]1CCO1 [Compound I-117]
[1]
  residual rate of the compound: 96.9%
Human GLP-1 receptor; [2]
  Emax: 117%
Human GLP-1 receptor; [3]
  EC50: 0.327 nM

## C[C@H]1c2cc(OCc3ccc(F)cc3)c(C(F)(F)F)cc2CCN1Cc1nc2ccc(C(=O)O)cc2n1C[C@@H]1CCO1 [Compound I-123]
[1]
  residual rate of the compound: > 99.9%
Human GLP-1 receptor; [2]
  Emax: 97.7%
Human GLP-1 receptor; [3]
  EC50: 3.76 nM

## C[C@H]1c2nc(OCc3ccc(Cl)cc3F)c(C(F)(F)F)cc2CCN1Cc1nc2ccc(C(=O)O)cc2n1C[C@@H]1CCO1 [Compound I-145]
[1]
  residual rate of the compound: 94.0%
Human GLP-1 receptor; [2]
  Emax: 108%
Human GLP-1 receptor; [3]
  EC50: 0.0938 nM

## C[C@H]1c2nc(OCc3ccc(Cl)cc3F)c(C(F)(F)F)cc2CCN1Cc1nc2ccc(C(=O)O)c(F)c2n1C[C@@H]1CCO1 [Compound I-160]
[1]
  residual rate of the compound: 92.4%
Human GLP-1 receptor; [2]
  Emax: 118%
Human GLP-1 receptor; [3]
  EC50: 0.0524 nM

## COc1cc(C(=O)O)cc2c1nc(CN1CCc3cc(C(F)(F)F)c(OCc4ccc(C5CC5)cc4)nc3[C@@H]1C)n2C[C@@H]1CCO1 [Compound I-375]
Human GLP-1 receptor; [4]
  Emax: 103%
Human GLP-1 receptor; [5]
  EC50: 0.0814 nM

## COc1cc(Cl)ccc1COc1nc2c(cc1C(F)(F)F)CCN(Cc1nc3c(OC)cc(C(=O)O)cc3n1C[C@@H]1CCO1)[C@H]2C [Compound I-376]
Human GLP-1 receptor; [4]
  Emax: 106%
Human GLP-1 receptor; [5]
  EC50: 0.0152 nM

## COc1cc(C(=O)O)cc2c1nc(CN1CCc3cc(C(F)(F)F)c(OCc4ccc(Cl)cc4Cl)nc3[C@@H]1C)n2C[C@@H]1CCO1 [Compound I-377]
Human GLP-1 receptor; [4]
  Emax: 126%
Human GLP-1 receptor; [5]
  EC50: 0.0176 nM

## COc1cc(C(=O)O)cc2c1nc(CN1CCc3cc(C(F)(F)F)c(OCc4cc(F)c(Cl)cc4F)nc3[C@@H]1C)n2C[C@@H]1CCO1 [Compound I-378]
Human GLP-1 receptor; [4]
  Emax: 95.3%
Human GLP-1 receptor; [5]
  EC50: 0.0146 nM

## COc1cc(C(=O)O)cc2c1nc(CN1CCc3cc(C(F)(F)F)c(OCc4c(F)cc(Cl)cc4F)nc3[C@@H]1C)n2C[C@@H]1CCO1 [Compound I-379]
Human GLP-1 receptor; [4]
  Emax: 96%
Human GLP-1 receptor; [5]
  EC50: 0.0121 nM

## O=C(O)c1cc(F)c2nc(CN3CCc4cc(C(F)(F)F)c(OCc5ccc(Cl)cc5)nc4C3)n(C[C@@H]3CCO3)c2c1 [Compound I-380]
Human GLP-1 receptor; [4]
  Emax: 108%
Human GLP-1 receptor; [5]
  EC50: 0.382 nM

## Cc1ccc(COc2nc3c(cc2C(F)(F)F)CCN(Cc2nc4c(F)cc(C(=O)O)cc4n2C[C@@H]2CCO2)C3)cc1 [Compound I-381]
Human GLP-1 receptor; [4]
  Emax: 116%
Human GLP-1 receptor; [5]
  EC50: 0.702 nM

## COc1cc(Cl)ccc1COc1nc2c(cc1C(F)(F)F)CCN(Cc1nc3c(F)cc(C(=O)O)cc3n1C[C@@H]1CCO1)C2 [Compound I-382]
Human GLP-1 receptor; [4]
  Emax: 125%
Human GLP-1 receptor; [5]
  EC50: 0.159 nM

## O=C(O)c1cc(F)c2nc(CN3CCc4cc(C(F)(F)F)c(OCc5ccc(F)cc5F)nc4C3)n(C[C@@H]3CCO3)c2c1 [Compound I-383]
Human GLP-1 receptor; [4]
  Emax: 109%
Human GLP-1 receptor; [5]
  EC50: 0.516 nM

## O=C(O)c1cc(F)c2nc(CN3CCc4cc(C(F)(F)F)c(OCc5ccc(Cl)cc5Cl)nc4C3)n(C[C@@H]3CCO3)c2c1 [Compound I-384]
Human GLP-1 receptor; [4]
  Emax: 114%
Human GLP-1 receptor; [5]
  EC50: 0.126 nM

## O=C(O)c1cc(F)c2nc(CN3CCc4cc(C(F)(F)F)c(OCc5ccc(Cl)cc5F)nc4C3)n(C[C@@H]3CCO3)c2c1 [Compound I-385]
Human GLP-1 receptor; [4]
  Emax: 112%

## COc1cc(C(=O)O)cc2c1nc(CN1CCc3cc(C(F)(F)F)c(OCc4ccc(Cl)cc4)nc3C1)n2C[C@@H]1CCO1 [Compound I-386]
Human GLP-1 receptor; [4]
  Emax: 112%
Human GLP-1 receptor; [5]
  EC50: 0.0877 nM

## COc1cc(C(=O)O)cc2c1nc(CN1CCc3cc(C(F)(F)F)c(OCc4ccc(C)cc4)nc3C1)n2C[C@@H]1CCO1 [Compound I-387]
Human GLP-1 receptor; [4]
  Emax: 122%
Human GLP-1 receptor; [5]
  EC50: 0.178 nM

## COc1cc(Cl)ccc1COc1nc2c(cc1C(F)(F)F)CCN(Cc1nc3c(OC)cc(C(=O)O)cc3n1C[C@@H]1CCO1)C2 [Compound I-388]
Human GLP-1 receptor; [4]
  Emax: 115%
Human GLP-1 receptor; [5]
  EC50: 0.0523 nM

## COc1cc(C(=O)O)cc2c1nc(CN1CCc3cc(C(F)(F)F)c(OCc4ccc(Cl)cc4Cl)nc3C1)n2C[C@@H]1CCO1 [Compound I-389]
Human GLP-1 receptor; [4]
  Emax: 115%
Human GLP-1 receptor; [5]
  EC50: 0.05 nM

## COc1cc(C(=O)O)cc2c1nc(CN1CCc3cc(C(F)(F)F)c(OCc4ccc(Cl)cc4F)nc3C1)n2C[C@@H]1CCO1 [Compound I-390]
Human GLP-1 receptor; [4]
  Emax: 107%
Human GLP-1 receptor; [5]
  EC50: 0.046 nM

## C[C@H]1c2nc(OCc3ccc(Cl)cn3)c(C(F)(F)F)cc2CCN1Cc1nc2ccc(C(=O)O)nc2n1C[C@@H]1CCO1 [Compound I-391]
Human GLP-1 receptor; [4]
  Emax: 107%
Human GLP-1 receptor; [5]
  EC50: 0.396 nM

## COc1cc(C(=O)O)cc2c1nc(CN1CCc3cc(C(F)(F)F)c(OCc4ccc(Cl)cn4)nc3[C@@H]1C)n2C[C@@H]1CCO1 [Compound I-392]
Human GLP-1 receptor; [4]
  Emax: 135%
Human GLP-1 receptor; [5]
  EC50: 0.0156 nM

## C[C@H]1c2nc(OCc3ccc(Cl)cc3F)c(I)cc2CCN1Cc1nc2ccc(C(=O)O)cc2n1C[C@@H]1CCO1 [Compound I-393]
Human GLP-1 receptor; [4]
  Emax: 121%
Human GLP-1 receptor; [5]
  EC50: 0.099 nM

## C[C@H]1c2nc(OCc3ccc(Cl)cc3F)c(C(F)F)cc2CCN1Cc1nc2ccc(C(=O)O)cc2n1C[C@@H]1CCO1 [Compound I-394]
Human GLP-1 receptor; [4]
  Emax: 108%
Human GLP-1 receptor; [5]
  EC50: 0.0497 nM

## C[C@H]1c2nc(OCc3ccc(Cl)cc3F)ccc2CCN1Cc1nc2ccc(C(=O)O)cc2n1C[C@@H]1CCO1 [Compound I-395]
Human GLP-1 receptor; [4]
  Emax: 89.7%
Human GLP-1 receptor; [5]
  EC50: 0.618 nM
